Source: patent US20210093645A1, “COMBINATION ANTI CANCER THERAPY WITH AN IAP ANTAGONIST AND AN ANTI PD-1 MOLECULE” (Debiopharm International S.A., priority 2017, published 2021)
Entries after “also recorded” stand apart in the source; their conditions may differ. Numbered stars: 1 amine (or outer) side, 2 acyl side, 3 side chain; on linkers, the order of the positions; unused ones are H or OH. Bridge positions count the residues as written; N and C are the ends. Square brackets hold non-standard residues; d marks the D form. Peptide text beside a SMILES is read from it. I, II: the chains in the order shown. Hexamethylenediamine = C(CCCN[*:2])CCN[*:1]; Dip = N[C@H](C(=O)O)C(c1ccccc1)c1ccccc1; Chg = N[C@H](C(=O)O)C1CCCCC1; NMeA = CN[C@@H](C)C(=O)O

What was measured:
antigen-presenting cells = settings: cited from earlier work
cIAP1 = biological target: T1, cIAP1 (Homo sapiens, UniProt Q13490); assay: immunohistochemistry of tumor biopsies before and after Debio 1143, cIAP1 staining; assay type: in vivo; settings: head & neck cancer patients, n=12; 200 mg Debio 1143 p.o. daily day 1 to 15; biopsy after vs before treatment
T1 construct: from tissue; host or cells: tumor biopsies of patients with squamous cell carcinoma of the head and neck
Procedure: (§1) The study enrolled adult patients with newly diagnosed histologically proven squamous cell carcinoma of the oral cavity, oropharynx, hypopharynx or larynx. During a screening period of two weeks (days −14 to −1), a tumor biopsy was taken and analyzed. Treatment was from day 1 to day 15 (+/−2 days) and consisted (in one arm) of daily administration p.o. of 200 mg Debio 1143. At the end of this treatment period, a second tumor biopsy was taken and analyzed, and the patients underwent surgery. Biopsies were analyzed by immunohistochemical methods. Staining for cIAP1 was carried out using a Dako autostainer automaton (Agilent). The EPR4673 […] mAb (Abcam) was utilized at a 1/100 dilution, and tissue slides were exposed to the antibody for 20 min. Pretreatment of the slides was with EnVision FLEX Target Retrieval Solution, Low pH; the EnVision FLEX system (chromogen: DAB) was employed for visualization of the signal. EnVision Flex system and reagent were from Agilent. The same protocol was applied for PD-L1 staining. The E1 L3N rabbit mAb (Cell Signaling Technology) was used at a 1/500 dilution.

CD4+ T-lymphocytes = assay: immunohistochemistry of tumor biopsies before and after Debio 1143, CD4 staining; assay type: in vivo, human; settings: head & neck cancer patients, n=12; 200 mg Debio 1143 p.o. daily day 1 to 15; biopsy after vs before treatment
Procedure: (§2) The study enrolled adult patients with newly diagnosed histologically proven squamous cell carcinoma of the oral cavity, oropharynx, hypopharynx or larynx. During a screening period of two weeks (days −14 to −1), a tumor biopsy was taken and analyzed. Treatment was from day 1 to day 15 (+/−2 days) and consisted (in one arm) of daily administration p.o. of 200 mg Debio 1143. At the end of this treatment period, a second tumor biopsy was taken and analyzed, and the patients underwent surgery. T cells were identified using CD3 rabbit mAb 2GV6 from Ventana Roche (provided as a ready-to-use solution). Slides were processed on a Ventana Benchmark Ultra automaton. Exposure to antibody was 20 min. Pretreatment of the slides (64 min) was with cell conditioning solution CC1 (Ventana); the Optiview system (Ventana) (chromogen: DAB) was employed for visualization of the signal. Staining of CD8 and CD4 T cells was by the same protocol. The CD8 antibody was the SP57 rabbit mAb, and the CD4 antibody was the SP35 rabbit mAb. Both antibodies were from Ventana Roche and were provided as ready-to-use solutions. The antibody selected for PD-1 detection was the NAT105 mouse mAb that was also provided as a ready-to-use solution (Cell Marque). The protocol for PD-1 detection was the same as that used for CD3 staining, except that antibody exposure and pretreatment times were each 16 min.

CD8+ T-lymphocytes = assay: immunohistochemistry of tumor biopsies before and after Debio 1143, CD8 staining; assay type: in vivo, human; settings: head & neck cancer patients, n=12; 200 mg Debio 1143 p.o. daily day 1 to 15; biopsy after vs before treatment
Procedure: as §2

PD-1 = assay: immunohistochemistry of tumor biopsies before and after Debio 1143, PD-1 staining; assay type: in vivo, human; settings: head & neck cancer patients, n=12; 200 mg Debio 1143 p.o. daily day 1 to 15; biopsy after vs before treatment
Procedure: as §2

PD-L1 = assay: immunohistochemistry of tumor biopsies before and after Debio 1143, PD-L1 staining; assay type: in vivo, human; settings: head & neck cancer patients, n=12; 200 mg Debio 1143 p.o. daily day 1 to 15; biopsy after vs before treatment
Procedure: as §1

[1] = test system: syngeneic colon carcinoma cell line MC38; assay: MC38 syngeneic tumor model, Debio 1143 pretreatment then anti-PD-L1 (Example 2); assay type: in vivo, C57BL/6J mice
Procedure: Five groups (n=8) of adult female C57BL/6J mice (obtained from Shanghai Lingchang Bio-Technology Co.) were inoculated in the right lower flank with 1×10^6 cells of the syngeneic colon carcinoma cell line MC38. When average tumor size reached about 50 mm^3 (day 1), animals received either pretreatment consisting of p.o. SMAC mimetic Debio 1143 (Debiopharm) at a dose of 100 mg/kg or vehicle as indicated in Table 1. The dosing was repeated on each day for 7 days (day 1-7). On the subsequent day (day 8), animals of a vehicle-treated group and a Debio 1143-pretreated group were given i.p. 10 mg/kg of control antibody rlgG2b (Clone: LTF-2, BioXcell). Control antibody was administered twice weekly until the end of the study. Another set of two groups (vehicle- and Debio 1143-pretreated animals) received i.p. 10 mg/kg of anti-PD-L1 antibody (Mouse surrogate antibody, anti-mouse PD-L1, Clone: 10F.9G2, BioXcell). Administration was repeated twice weekly as for the control antibody. A final group of Debio 1143-pretreated animals received both anti-PD-L1 antibody as well as was continued on daily Debio 1143. Tumor volumes and body weights were assessed trice weekly. Tumor size was measured in two dimensions using a caliper, and the volume was expressed in mm^3 using the formula: V=0.5 a×b^2 where a and b are the long and short diameters of the tumor, respectively.

[2] = test system: syngeneic colon carcinoma cell line CT26; assay: CT26 syngeneic tumor model, Debio 1143 pretreatment then anti-PD-1 (Example 4); assay type: in vivo, BALB/c mice
Procedure: Five groups (n=8) of adult female BALB/c mice (obtained from Shanghai Lingchang Bio-Technology Co.) were inoculated in the right lower flank with 0.5×10^6 cells of the syngeneic colon carcinoma cell line CT26. When average tumor size reached about 50 mm^3 (day 1), animals received either pretreatment consisting of p.o. SMAC mimetic Debio 1143 (Debiopharm) at a dose of 100 mg/kg or vehicle as indicated in Table 3a. The dosing was repeated on each day for 7 days (day 1-7). […] Another set of two groups (vehicle- and Debio 1143-pretreated animals) received biweekly i.p. 10 mg/kg of anti-PD-1 antibody (Mouse surrogate antibody, anti-mouse PD-1, Clone: RMP1-14, BioXcell). A final group of Debio 1143-pretreated animals received both anti-PD-1 antibody as well as was continued on daily Debio 1143. Tumor volumes and body weights were assessed trice weekly. Tumor size was measured in two dimensions using a caliper, and the volume was expressed in mm^3 using the formula: V=0.5 a×b^2 where a and b are the long and short diameters of the tumor, respectively.

T-cell = settings: in the context of a primary T-cell receptor stimulus; cited from earlier work
[3] = in vivo; cited from earlier work
[4] = test system: syngeneic colon carcinoma cell line MC-38; assay: MC38 syngeneic tumor model, birinapant or LCL161 pretreatment then anti-PD-L1 (Example 3); assay type: in vivo, C57BL/6J mice
Procedure: 72 adult female C57BL/6J mice (obtained from Shanghai Lingchang Bio-Technology Co.) were inoculated subcutaneously at the right lower flank with 1×10^6 cells of the syngeneic colon carcinoma cell line MC-38 in 0.1 ml of PBS. Tumor volumes were measured three times weekly in two dimensions using a caliper, and the volume was expressed in mm^3 using the formula: V=(L×W×W)/2, where V is tumor volume, L is tumor length (the longest tumor dimension) and W is tumor width (the longest tumor dimension perpendicular to L). All animals were randomly allocated to the 9 different study groups with a mean tumor size of 52 mm^3 based on the “Matched distribution” randomization method (StudyDirector™ software, version 3.1.399.19) and treatments started (denoted as day 1). Dosing as well as tumor and body weight measurement were conducted in a Laminar Flow Cabinet.
On day 1, part of the animals received either a 1 week pretreatment consisting of i.p. SMAC mimetic birinapant at a dose of 30 mg/kg, or its vehicle, in a biweekly schedule as indicated in Table 2. The other part of the animals received either a 1 week pretreatment consisting of p.o. SMAC mimetic LCL161 at a dose of 75 mg/kg, or its vehicle, in a biweekly schedule as indicated in Table 2.
On day 8, vehicle or SMAC mimetic pretreated animals were then further treated until study end with either biweekly i.p. 10 mg/kg of control antibody rlgG2b (Clone: LTF-2, BioXcell), or biweekly i.p. 10 mg/kg of anti-PD-L1 antibody (Mouse surrogate antibody, anti-mouse PD-L1, Clone: 10F.9G2, BioXcell). 1 group of animals that had received 1 week of birinapant pretreatment, and 1 group of animals that had received 1 week of LCL161 pretreatment, were each continued on the respective SMAC mimetic during the period of anti-PD-L1 treatment until study end.

[5] = test system: advanced treatment-refractory NSCLC; settings: advanced treatment-refractory NSCLC patients; cited from earlier work
RCC = RCC patients; cited from earlier work
melanoma = melanoma patients; cited from earlier work

T1 sequence (Q13490 whole entry): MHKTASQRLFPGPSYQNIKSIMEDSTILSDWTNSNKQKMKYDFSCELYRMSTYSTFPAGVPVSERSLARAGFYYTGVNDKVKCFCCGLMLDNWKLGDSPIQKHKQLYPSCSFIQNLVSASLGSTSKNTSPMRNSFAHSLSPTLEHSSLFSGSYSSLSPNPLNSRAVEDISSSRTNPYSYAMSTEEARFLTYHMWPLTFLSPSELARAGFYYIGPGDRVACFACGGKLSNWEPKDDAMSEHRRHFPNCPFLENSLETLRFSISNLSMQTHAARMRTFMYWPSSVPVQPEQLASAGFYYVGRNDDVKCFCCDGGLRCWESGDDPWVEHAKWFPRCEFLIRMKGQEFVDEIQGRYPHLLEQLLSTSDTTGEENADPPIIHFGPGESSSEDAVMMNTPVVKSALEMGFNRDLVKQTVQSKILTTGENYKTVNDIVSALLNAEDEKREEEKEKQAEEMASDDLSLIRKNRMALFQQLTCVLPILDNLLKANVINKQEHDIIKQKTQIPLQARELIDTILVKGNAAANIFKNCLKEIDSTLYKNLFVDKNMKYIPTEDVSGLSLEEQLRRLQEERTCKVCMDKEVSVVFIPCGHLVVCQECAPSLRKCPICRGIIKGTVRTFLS

Compound: CN[C@@H](C)C(=O)N[C@H](C(=O)N1CCC[C@H]1C(=O)N[C@H](C(=O)NCCCCCCNC(=O)[C@@H](NC(=O)[C@@H]1CCCN1C(=O)[C@@H](NC(=O)[C@H](C)NC)C1CCCCC1)C(c1ccccc1)c1ccccc1)C(c1ccccc1)c1ccccc1)C1CCCCC1 [BV6] (I: H-[NMeA][Chg]P[Dip] / II: H-[NMeA][Chg]P[Dip]; linker I:C-II:C via Hexamethylenediamine)
- function of antigen-presenting cells (dendritic cell maturation, type-II to type-I macrophage conversion) (antigen-presenting cells): modulate the function of antigen-presenting cells

Compound: CN[C@@H](C)C(=O)N[C@H]1CN(C(=O)CC(C)C)CC[C@H]2CC[C@@H](C(=O)NC(c3ccccc3)c3ccccc3)N2C1=O [Debio 1143]
- levels of cIAP1 in the tumors (cIAP1): reduced levels of cIAP1 in the tumors of most patients; also recorded: induces the degradation of cIAP1
- number of CD4+ T cells in the tumor microenvironment (CD4+ T-lymphocytes): both increased; also recorded: increases the number
- number of CD8+ T cells in the tumor microenvironment (CD8+ T-lymphocytes): increase in CD8+ T cell number being significant; also recorded: increases the number
- percentage / number of immune cells expressing PD-1 in tumor (PD-1): increased significantly; also recorded: increases the number
- frequency / number of PD-L1-expressing tumor cells (PD-L1): also increased; also recorded: increases the number
- percentage / number of immune cells expressing PD-L1 in tumor (PD-L1): increased significantly; also recorded: increases the number
- anti-cancer effect (median tumor volume) ([1]; Debio 1143 100 mg/kg p.o. QD day 1-7 pretreatment alone, then control antibody rlgG2b (group 2)): modest anti-cancer effect
- anti-cancer effect (median tumor volume) ([1]; Debio 1143 100 mg/kg p.o. QD day 1-7 pretreatment, then anti-PD-L1 10 mg/kg i.p. BIW (group 4)): profound anti-cancer effect; also recorded: sensitizes MC38 tumors to a subsequent treatment with an anti-PD-L1 antibody
- anti-cancer effect (median tumor volume) ([1]; Debio 1143 pretreatment day 1-7, then anti-PD-L1 plus continued daily Debio 1143 (group 5), compared with group 4): small additional benefit
- anti-cancer effect (median tumor volume) ([2]; Debio 1143 100 mg/kg p.o. QD day 1-7 pretreatment alone, then oral vehicle (group 3)): modest anti-cancer effect
- anti-cancer effect (median tumor volume) ([2]; Debio 1143 100 mg/kg p.o. QD day 1-7 pretreatment, then anti-PD-1 10 mg/kg i.p. BIW (group 4)): small additional benefit to Debio 1143 pretreatment alone; also recorded: sensitizes CT26 tumors to a subsequent treatment with an anti-PD-1 antibody
- anti-cancer effect (median tumor volume) ([2]; Debio 1143 pretreatment, then anti-PD-1 plus continued daily Debio 1143 (group 5)): significant additional benefit

Compound: CN[C@@H](C)C(=O)N[C@H](C(=O)N1CC[C@H]2CCN(CCc3ccccc3)C[C@H]21)C1CCCCC1 [LBW242]
- anti-tumor immune responses (T-cell proliferation, co-stimulation, activation) (T-cell): increase anti-tumor immune responses
- efficacy in a prophylactic cancer vaccine model [3]: enhanced efficacy

Compound: CN[C@@H](C)C(=O)N[C@H](C(=O)N1CCC[C@H]1c1nc(C(=O)c2ccc(F)cc2)cs1)C1CCCCC1 [LCL161]
- anti-cancer effect (median tumor volume) ([4]; LCL161 75 mg/kg p.o. BIW 1 week pretreatment alone, then control antibody rlgG2b (group 7)): modest anti-cancer effect
- anti-cancer effect (median tumor volume) ([4]; LCL161 75 mg/kg p.o. BIW 1 week pretreatment, then anti-PD-L1 10 mg/kg i.p. BIW (group 8)): small additional benefit to LCL161 pretreatment alone; also recorded: sensitizes MC38 tumors to a subsequent treatment with an anti-PD-L1 antibody
- anti-cancer effect (median tumor volume) ([4]; LCL161 pretreatment, then anti-PD-L1 plus continued LCL161 (group 9)): significant additional benefit

Compound: CC[C@H](NC(=O)[C@H](C)NC)C(=O)N1C[C@@H](O)C[C@H]1Cc1c(-c2[nH]c3cc(F)ccc3c2C[C@@H]2C[C@H](O)CN2C(=O)[C@H](CC)NC(=O)[C@H](C)NC)[nH]c2cc(F)ccc12 [birinapant]
- anti-cancer effect (median tumor volume) ([4]; birinapant 30 mg/kg i.p. BIW 1 week pretreatment alone, then control antibody rlgG2b (group 2)): modest anti-cancer effect
- anti-cancer effect (median tumor volume) ([4]; birinapant 30 mg/kg i.p. BIW 1 week pretreatment, then anti-PD-L1 10 mg/kg i.p. BIW (group 4)): singificant anti-cancer effect; also recorded: sensitizes MC38 tumors to a subsequent treatment with an anti-PD-L1 antibody
- anti-cancer effect (median tumor volume) ([4]; birinapant pretreatment, then anti-PD-L1 plus continued birinapant (group 5), compared with group 4): small additional benefit
- function of antigen-presenting cells (dendritic cell maturation, type-II to type-I macrophage conversion) (antigen-presenting cells): modulate the function of antigen-presenting cells

Compound: Nivolumab: fully human IgG4 anti-PD-1 monoclonal antibody from Bristol-Myers Squibb/Ono Pharmaceuticals
- Objective response rate [5]: 17%
- Overall survival [5]: 9.9 months
- Objective response rate (RCC): 20%
- Overall survival (RCC): 22.4 months
- Objective response rate (melanoma): 31%
- Overall survival (melanoma): 16.8 months
